Earlier results, collected in US20220175758A1, “COMPOSITIONS AND METHODS TO TREAT NON-ALCOHOLIC FATTY LIVER DISEASES (NAFLD)” (Coherus Biosciences, Inc., priority 2019, published 2022).

Conditions: monotherapy

Cc1cc(F)c(C(=O)Nc2cccc(-c3nncn3C(C)C)n2)cc1-n1cnc(C2CC2)c1 [selonsertib]
primary endpoint of the STELLAR-4 phase 3 clinical trial: failed to meet the primary endpoint
